Data published in paper PMC7584476, “Safety and efficacy of BAY1436032 in IDH1-mutant AML: phase I study results” (Leukemia, 2020).

System: subjects with mIDH1 advanced AML
Assay: Phase I study: safety and tolerability (TEAE, DLT, MTD, ECG)
Format: in vivo
Procedure: This study was an open-label, nonrandomized, multicenter phase I trial. Subjects were screened at 13 hospital sites in 2 countries (USA and Germany). The study was to consist of dose-escalation followed by dose-expansion. The MTD identified in dose-escalation was to be used in the dose-expansion. If MTD was not reached in dose-escalation, a dose for the expansion would be selected based on available PK, pharmacodynamic, safety, and efficacy data. BAY1436032 was administered twice-daily (BID) in continuous 28-day cycles. In dose-escalation, up to 9 evaluable subjects could be enrolled per cohort, with a minimum of 3 dose-limiting toxicity (DLT)-free evaluable subjects required prior to escalating to the next highest dose. Bayesian dose-DLT modeling was performed to help guide dosing decisions.
DLTs were differentially defined for nonhematopoietic versus hematopoietic toxicities. Nonhematopoietic toxicities of ≥grade 3 occurring during the first cycle of treatment were to be considered DLTs with the following exceptions: (1) Alopecia and nausea controlled by medical management; (2) Tumor lysis syndrome if successfully managed clinically and resolved within 7 days without any end-organ damage; (3) Differentiation syndrome (DS) if successfully managed clinically and resolved within 7 days without any end-organ damage; (4) Asymptomatic ≥grade 3 electrolyte abnormalities not considered clinically significant by the investigator. […] For certain toxicities such as laboratory assessments without a clear clinical correlate, a discussion between the investigator and the sponsor determined whether the adverse event (AE) should be assessed as a DLT.
DLTs identified during the first cycle of treatment were used to guide dose-escalation decisions and to determine the MTD, and if safety issues appeared in subsequent cycles they were also to be considered. Hydroxyurea was permitted during the first cycle if white blood cell (WBC) exceeded 20 × 10^9/L and was also permitted for treatment of DS.
Safety and tolerability were evaluated by analysis of adverse events, physical examinations, vital signs, ECOG performance status, and various laboratory assessments. For safety monitoring, subjects were scheduled for clinic visits every week for the initial three cycles of treatment, after which time visits could be reduced to every-other-week with investigator and sponsor agreement. Cardiac function was assessed with triplicate 12-lead electrocardiograms (ECG) at screening, C1-D1, C1-D2, C1-D15, D1 of every subsequent cycle, and at treatment end. […] AEs are presented by the Medical Dictionary for Regulatory Activities (MedDRA) v21.1.

C[C@H]1C[C@@H](n2c(Nc3ccc(OC(F)(F)F)cc3)nc3cc(CCC(=O)O)ccc32)CC(C)(C)C1 [BAY1436032]
Related TEAE Decreased appetite Grade 1 (300 mg BID, n=7): 1 | Related TEAE Decreased appetite Grade 2 (300 mg BID, n=7): 1 | Related TEAE Diarrhea Grade 2 (300 mg BID, n=7): 0 | Related TEAE Differentiation syndrome Grade 2 (300 mg BID, n=7): 0 | Related TEAE Differentiation syndrome Grade 3 (300 mg BID, n=7): 0 | Related TEAE Dyspnea Grade 1 (300 mg BID, n=7): 1 | Related TEAE Dyspnea Grade 2 (300 mg BID, n=7): 1 | Related TEAE Fatigue Grade 1 (300 mg BID, n=7): 0 | Related TEAE Fatigue Grade 2 (300 mg BID, n=7): 1 | Related TEAE Fatigue Grade 3 (300 mg BID, n=7): 0 | Related TEAE Hypomagnesaemia Grade 1 (300 mg BID, n=7): 1 | Related TEAE Nausea Grade 1 (300 mg BID, n=7): 1 | Related TEAE Nausea Grade 2 (300 mg BID, n=7): 1 | Related TEAE Sinus tachycardia Grade 1 (300 mg BID, n=7): 1 | Related TEAE Vomiting Grade 1 (300 mg BID, n=7): 2 | TEAE Abdominal pain upper Grade 1 (300 mg BID, n=7): 0 | TEAE Abdominal pain upper Grade 2 (300 mg BID, n=7): 0 | TEAE Acute kidney injury Grade 1 (300 mg BID, n=7): 1 | TEAE Acute kidney injury Grade 2 (300 mg BID, n=7): 1 | TEAE Acute kidney injury Grade 3 (300 mg BID, n=7): 0 | TEAE Anaemia Grade 3 (300 mg BID, n=7): 0 | TEAE Anaemia Grade 4 (300 mg BID, n=7): 1 | TEAE Anxiety Grade 1 (300 mg BID, n=7): 1 | TEAE Anxiety Grade 2 (300 mg BID, n=7): 0 | TEAE Arthralgia Grade 1 (300 mg BID, n=7): 0 | TEAE Arthralgia Grade 2 (300 mg BID, n=7): 0 | TEAE Constipation Grade 1 (300 mg BID, n=7): 0 | TEAE Constipation Grade 2 (300 mg BID, n=7): 1 | TEAE Contusion Grade 1 (300 mg BID, n=7): 1 | TEAE Contusion Grade 2 (300 mg BID, n=7): 0 | TEAE Cough Grade 1 (300 mg BID, n=7): 2 | TEAE Cough Grade 2 (300 mg BID, n=7): 1 | TEAE Decreased appetite Grade 1 (300 mg BID, n=7): 3 | TEAE Decreased appetite Grade 2 (300 mg BID, n=7): 1 | TEAE Decreased appetite Grade 3 (300 mg BID, n=7): 0 | TEAE Diarrhea Grade 1 (300 mg BID, n=7): 4 | TEAE Diarrhea Grade 2 (300 mg BID, n=7): 0 | TEAE Dry skin Grade 1 (300 mg BID, n=7): 2 | TEAE Dyspnoea Grade 1 (300 mg BID, n=7): 2 | TEAE Dyspnoea Grade 2 (300 mg BID, n=7): 1 | TEAE Dyspnoea Grade 3 (300 mg BID, n=7): 2 | TEAE Epistaxis Grade 1 (300 mg BID, n=7): 0 | TEAE Epistaxis Grade 2 (300 mg BID, n=7): 0 | TEAE Epistaxis Grade 3 (300 mg BID, n=7): 0 | TEAE Fall Grade 1 (300 mg BID, n=7): 0 | TEAE Fatigue Grade 1 (300 mg BID, n=7): 2 | TEAE Fatigue Grade 2 (300 mg BID, n=7): 1 | TEAE Fatigue Grade 3 (300 mg BID, n=7): 1 | TEAE Febrile neutropenia Grade 3 (300 mg BID, n=7): 2 | TEAE General physical health deterioration Grade 3 (300 mg BID, n=7): 0 | TEAE General physical health deterioration Grade 5 (300 mg BID, n=7): 0 | TEAE Gingivitis Grade 1 (300 mg BID, n=7): 2 | TEAE Haematuria Grade 1 (300 mg BID, n=7): 1 | TEAE Haematuria Grade 2 (300 mg BID, n=7): 0 | TEAE Haematuria Grade 3 (300 mg BID, n=7): 0 | TEAE Headache Grade 1 (300 mg BID, n=7): 1 | TEAE Headache Grade 2 (300 mg BID, n=7): 2 | TEAE Headache Grade 3 (300 mg BID, n=7): 0 | TEAE Hyperkalaemia Grade 1 (300 mg BID, n=7): 1 | TEAE Hyperkalaemia Grade 4 (300 mg BID, n=7): 0 | TEAE Hypertension Grade 2 (300 mg BID, n=7): 0 | TEAE Hypertension Grade 3 (300 mg BID, n=7): 0 | TEAE Hyperuricaemia Grade 1 (300 mg BID, n=7): 0 | TEAE Hyperuricaemia Grade 3 (300 mg BID, n=7): 0 | TEAE Hypokalaemia Grade 1 (300 mg BID, n=7): 2 | TEAE Hypokalaemia Grade 2 (300 mg BID, n=7): 0 | TEAE Hypokalaemia Grade 3 (300 mg BID, n=7): 1 | TEAE Hyponatraemia Grade 1 (300 mg BID, n=7): 2 | TEAE Hyponatraemia Grade 3 (300 mg BID, n=7): 0 | TEAE Hypophosphataemia Grade 1 (300 mg BID, n=7): 0 | TEAE Hypophosphataemia Grade 2 (300 mg BID, n=7): 1 | TEAE Leukocytosis Grade 2 (300 mg BID, n=7): 1 | TEAE Leukocytosis Grade 3 (300 mg BID, n=7): 1 | TEAE Lung infection Grade 3 (300 mg BID, n=7): 1 | TEAE Lung infection Grade 5 (300 mg BID, n=7): 1 | TEAE Nausea Grade 1 (300 mg BID, n=7): 1 | TEAE Nausea Grade 2 (300 mg BID, n=7): 1 | TEAE Nausea Grade 3 (300 mg BID, n=7): 0 | TEAE Oedema peripheral Grade 1 (300 mg BID, n=7): 3 | TEAE Oedema peripheral Grade 3 (300 mg BID, n=7): 1 | TEAE Pain in extremity Grade 1 (300 mg BID, n=7): 1 | TEAE Pain in extremity Grade 2 (300 mg BID, n=7): 0 | TEAE Pneumonia Grade 1 (300 mg BID, n=7): 0 | TEAE Pneumonia Grade 2 (300 mg BID, n=7): 1 | TEAE Pneumonia Grade 3 (300 mg BID, n=7): 1 | TEAE Pneumonia fungal Grade 2 (300 mg BID, n=7): 0 | TEAE Pneumonia fungal Grade 3 (300 mg BID, n=7): 0 | TEAE Pneumonia fungal Grade 4 (300 mg BID, n=7): 0 | TEAE Productive cough Grade 1 (300 mg BID, n=7): 0 | TEAE Productive cough Grade 2 (300 mg BID, n=7): 0 | TEAE Pyrexia Grade 1 (300 mg BID, n=7): 0 | TEAE Pyrexia Grade 2 (300 mg BID, n=7): 0 | TEAE Pyrexia Grade 3 (300 mg BID, n=7): 0 | TEAE Rash Grade 1 (300 mg BID, n=7): 0 | TEAE Rash Grade 2 (300 mg BID, n=7): 0 | TEAE Sepsis Grade 4 (300 mg BID, n=7): 2 | TEAE Sepsis Grade 5 (300 mg BID, n=7): 1 | TEAE Sinus tachycardia Grade 1 (300 mg BID, n=7): 2 | TEAE Thrombocytopenia Grade 4 (300 mg BID, n=7): 0 | TEAE Vomiting Grade 1 (300 mg BID, n=7): 3 | TEAE Weight decreased Grade 1 (300 mg BID, n=7): 2 | TEAE Weight decreased Grade 2 (300 mg BID, n=7): 0 | TEAE Weight decreased Grade 3 (300 mg BID, n=7): 0 | Related TEAE Decreased appetite Grade 1 (600 mg BID, n=4): 0 | Related TEAE Decreased appetite Grade 2 (600 mg BID, n=4): 0 | Related TEAE Diarrhea Grade 2 (600 mg BID, n=4): 0 | Related TEAE Differentiation syndrome Grade 2 (600 mg BID, n=4): 0 | Related TEAE Differentiation syndrome Grade 3 (600 mg BID, n=4): 0 | Related TEAE Dyspnea Grade 1 (600 mg BID, n=4): 0 | Related TEAE Dyspnea Grade 2 (600 mg BID, n=4): 0 | Related TEAE Fatigue Grade 1 (600 mg BID, n=4): 1 | Related TEAE Fatigue Grade 2 (600 mg BID, n=4): 0 | Related TEAE Fatigue Grade 3 (600 mg BID, n=4): 0 | Related TEAE Hypomagnesaemia Grade 1 (600 mg BID, n=4): 0 | Related TEAE Nausea Grade 1 (600 mg BID, n=4): 1 | Related TEAE Nausea Grade 2 (600 mg BID, n=4): 0 | Related TEAE Sinus tachycardia Grade 1 (600 mg BID, n=4): 0 | Related TEAE Vomiting Grade 1 (600 mg BID, n=4): 1 | TEAE Abdominal pain upper Grade 1 (600 mg BID, n=4): 0 | TEAE Abdominal pain upper Grade 2 (600 mg BID, n=4): 0 | TEAE Acute kidney injury Grade 1 (600 mg BID, n=4): 0 | TEAE Acute kidney injury Grade 2 (600 mg BID, n=4): 0 | TEAE Acute kidney injury Grade 3 (600 mg BID, n=4): 1 | TEAE Anaemia Grade 3 (600 mg BID, n=4): 1 | TEAE Anaemia Grade 4 (600 mg BID, n=4): 0 | TEAE Anxiety Grade 1 (600 mg BID, n=4): 0 | TEAE Anxiety Grade 2 (600 mg BID, n=4): 0 | TEAE Arthralgia Grade 1 (600 mg BID, n=4): 0 | TEAE Arthralgia Grade 2 (600 mg BID, n=4): 0 | TEAE Constipation Grade 1 (600 mg BID, n=4): 0 | TEAE Constipation Grade 2 (600 mg BID, n=4): 0 | TEAE Contusion Grade 1 (600 mg BID, n=4): 0 | TEAE Contusion Grade 2 (600 mg BID, n=4): 0 | TEAE Cough Grade 1 (600 mg BID, n=4): 1 | TEAE Cough Grade 2 (600 mg BID, n=4): 0
